We go through eleven compounds from ChEMBL document CHEMBL1125081, “Stereospecific synthesis and antiviral properties of different enantiomerically pure carbocyclic 2'-deoxyribonucleoside analogues derived from common chiral pools: (+)-(1R,5S)- and (-)-(1S,5R)-2-oxabicyclo[3.3.0]oct-6-en-3-one” (1990).

In brackets after ≈: the same amount, converted by molar mass.

The test system of one assay is HeLa. Briefly: Evaluated for minimum inhibitory concentration against HeLa cells (human carcinoma) infected with VSV, Coxs, B4, polio-1 virus. It counts as functional.
The test system of assay [1] is Vesicular stomatitis virus. Briefly: Evaluated for minimum inhibitory concentration against Vesicular stomatitis virus (VSV) in primary rabbit kidney cells. It counts as functional.
For the next assay, the system named is Human alphaherpesvirus 2. The assay can be described thus: Evaluated for minimum inhibitory concentration against G,196, Lyons strains of Herpes simplex virus (HSV-2) in primary rabbit kidney cells. It counts as functional.
In a further assay the test system is Vaccinia virus. Briefly: Evaluated for minimum inhibitory concentration against Vaccinia virus (VV) in primary rabbit kidney cells. It counts as functional. Particulars: Orthopoxvirus vaccinia.
The test system of assay [2] is Human alphaherpesvirus 1. The assay can be described thus: Evaluated for minimum inhibitory concentration against TK-B2006 strain of Herpes simplex virus (HSV-1) in primary rabbit kidney cells. It counts as functional.
The subject of another assay is Vero. The assay can be described thus: Evaluated for minimum inhibitory concentration against Vero cells (African green monkey) infected with PV-3, RV-1, SV, Coxs B4, SFV virus. It counts as functional. Particulars: Chlorocebus sabaeus.
The test system of assay [3] is Human immunodeficiency virus 1. Briefly: Evaluated for minimum inhibitory concentration (MIC) against MT-4 cells of human immunodeficiency virus type-1 (HIV-1). It counts as functional, MT4.
The subject of assay [4] is Human alphaherpesvirus 1. The assay can be described thus: Evaluated for minimum inhibitory concentration against KOS, F, McIntyre strains of Herpes simplex virus (HSV-1) in primary rabbit kidney cells. It counts as functional.
Assay [5] relates to Vesicular stomatitis virus. Briefly: Evaluated for minimum inhibitory concentration (MIC) against Vesicular stomatitis virus (VSV). It counts as functional.

With `Cc1cn([C@@H]2C[C@H](CO)[C@H](O)C2)c(=O)[nH]c1=O`, the MIC against HeLa was above 400 µg/mL; in assay [1] it was above 400 µg/mL; against Human alphaherpesvirus 2, above 400 µg/mL; against Vaccinia virus, above 400 µg/mL; in the assay on Human alphaherpesvirus 1 [2] it was above 400 µg/mL; in the assay on Vero it was above 200 µg/mL. Moreover, the MIC is above 250 µg/mL in assay [3] and above 400 µg/mL with Human alphaherpesvirus 1 [4].
Take `Cc1cn([C@@H]2C[C@H](CO)[C@@H](O)C2)c(=O)[nH]c1=O`: the MIC against HeLa was above 100 µg/mL; in [1], above 200 µg/mL; in the assay on Human alphaherpesvirus 2, 2 µg/mL (≈ 8.32 µM); against Vaccinia virus, 2 µg/mL (≈ 8.32 µM); in the assay on Human alphaherpesvirus 1 [2], 40 µg/mL (≈ 166 µM); against Vero, above 100 µg/mL. This compound showed an MIC in the assay with Human alphaherpesvirus 1 [4] of 0.2 µg/mL (≈ 0.832 µM).
`Nc1ncnc2c1ncn2[C@@H]1C[C@H](CO)[C@@H](O)C1`: the MIC in the assay on HeLa is above 100 µg/mL; in [1], above 400 µg/mL; with Human alphaherpesvirus 2 it was 20 µg/mL (≈ 80.2 µM); in the assay on Vaccinia virus, 100 µg/mL (≈ 401 µM); against Human alphaherpesvirus 1 [2], 100 µg/mL (≈ 401 µM); in the assay with Vero it was above 100 µg/mL. The MIC is above 50 µg/mL in [3] and 2 µg/mL (≈ 8.02 µM) in the assay on Human alphaherpesvirus 1 [4].
As to `Cc1cn(C2CC3OCC2C3CO)c(=O)[nH]c1=O` (stereo unspecified), the MIC (against HeLa; in assay [1]; against Human alphaherpesvirus 2; in the assay on Vaccinia virus; with Human alphaherpesvirus 1 [2]; against Vero) was above 400 µg/mL each time. Besides, the figures for the MIC (in [3]; in the assay on Human alphaherpesvirus 1 [4]) were above 250 µg/mL and above 400 µg/mL, respectively.
Turning to `Cc1cn([C@H]2CC[C@@H](CO)C2)c(=O)[nH]c1=O`, the MIC (in the assay on HeLa; in assay [1]; against Human alphaherpesvirus 2; in the assay with Vaccinia virus; in the assay with Human alphaherpesvirus 1 [2]; in the assay with Vero) was above 400 µg/mL in each case. Moreover, the MIC in assay [3] is above 250 µg/mL; in the assay with Human alphaherpesvirus 1 [4], above 400 µg/mL.
`Cc1cn([C@H]2C[C@@H](CO)[C@H](O)C2)c(=O)[nH]c1=O`: the MIC in the assay with HeLa is above 100 µg/mL; in assay [1] it was above 400 µg/mL; in the assay on Human alphaherpesvirus 2, above 400 µg/mL; against Vaccinia virus, above 400 µg/mL; against Vero, above 400 µg/mL; in [3], above 160 µg/mL. This compound also returned an MIC against Human alphaherpesvirus 1 [4] above 400 µg/mL.
In the case of `Cc1cn([C@H]2C[C@H](O)[C@@H](CO)[C@@H]2C)c(=O)[nH]c1=O`, the MIC in the assay with HeLa is above 400 µg/mL; in the assay with Human alphaherpesvirus 2, above 400 µg/mL; against Vaccinia virus, above 400 µg/mL; against Human alphaherpesvirus 1 [2], above 400 µg/mL; against Vero, above 400 µg/mL; in assay [3], above 250 µg/mL. Moreover, the MIC (against Human alphaherpesvirus 1 [4]; in assay [5]) was above 400 µg/mL each time.
Regarding `Nc1nccc2c1ncn2[C@@H]1C[C@H](CO)[C@@H](O)[C@H]1O` [3-DEAZAARISTEROMYCIN A], the MIC is 2 µg/mL (≈ 7.57 µM) in the assay with HeLa; 0.7 µg/mL (≈ 2.65 µM) in [1]; above 400 µg/mL with Human alphaherpesvirus 2; 0.7 µg/mL (≈ 2.65 µM) with Vaccinia virus; 150 µg/mL (≈ 568 µM) against Human alphaherpesvirus 1 [2]; 0.7 µg/mL (≈ 2.65 µM) with Vero. The compound also displayed an MIC against Human alphaherpesvirus 1 [4] above 400 µg/mL.
For the compound `O=c1[nH]c(=O)n([C@H]2C[C@H](O)[C@@H](CO)O2)cc1/C=C/Br` [BRIVUDINE], the MIC with HeLa is above 400 µg/mL; in [1], above 400 µg/mL; with Human alphaherpesvirus 2, 7 µg/mL (≈ 21 µM); with Vaccinia virus it was 20 µg/mL (≈ 60 µM); in the assay with Human alphaherpesvirus 1 [2] it was above 200 µg/mL; with Vero it was above 400 µg/mL. Moreover, the MIC in the assay with Human alphaherpesvirus 1 [4] amounted to 0.02 µg/mL (≈ 0.06 µM).
For `NC(=O)c1ncn([C@@H]2O[C@H](CO)[C@@H](O)[C@H]2O)n1` [RIBAVIRIN], the MIC was 20 µg/mL (≈ 81.9 µM) against HeLa; 300 µg/mL (≈ 1230 µM) in assay [1]; above 400 µg/mL in the assay with Human alphaherpesvirus 2; 10 µg/mL (≈ 40.9 µM) with Vaccinia virus; above 400 µg/mL against Human alphaherpesvirus 1 [2]; 150 µg/mL (≈ 614 µM) against Vero. Further, the MIC in the assay with Human alphaherpesvirus 1 [4] is above 400 µg/mL.
For the compound `Cc1cn([C@H]2C[C@H](N=[N+]=[N-])[C@@H](CO)O2)c(=O)[nH]c1=O` [ZIDOVUDINE], the MIC in [3] was determined as 0.001 µg/mL (≈ 0.00374 µM).
